Assay [1] deals with T1, PR-3 (Homo sapiens, UniProt P24158).
T1 construct: tissue Athens Research and Technology
T1 sequence (P24158 28-248 limits assumed): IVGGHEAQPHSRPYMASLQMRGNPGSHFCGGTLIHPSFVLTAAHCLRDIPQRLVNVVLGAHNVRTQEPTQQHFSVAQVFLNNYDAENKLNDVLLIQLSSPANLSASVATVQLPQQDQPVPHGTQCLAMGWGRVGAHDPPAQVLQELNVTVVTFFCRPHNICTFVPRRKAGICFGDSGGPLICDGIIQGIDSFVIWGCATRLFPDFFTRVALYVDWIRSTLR
Put plainly: Inhibition of the proteolytic activity of PR-3 by PMSF (cleavage of 125I-IL-32). The class given is biochemical. The following applies: PR-3 pre-incubated with PMSF 1 mM, 10 min at 37° C.; then 1 and 5 min with 125I-IL-32. As to the method: Lanes 1-4 show ^125I-IL-32 following incubation with urinary PR-3 for 1 and 5 min., either not treated (Lanes 1 and 2) or pre-treated with PMSF (Lanes 3 and 4). Lanes 7-10 show ^125I-IL-32 following incubation with commercial PR-3 for 1 and 5 min., either not treated (Lanes 9 and 10) or pre-treated with PMSF (Lanes 7 and 8). Molecular weight markers (in kDa; lane 5) are indicated at the right side.
The experiment presented in FIG. 6 was performed as described in examples 5 and 6, except that PR-3 was pre-incubated with PMSF (final concentration of 1 mM, 10 min at 37° C.) prior to the incubation with ^125I-IL-32.

In assay [2] the test system is IL-32 responsive cells. Put plainly: Biological activity of IL-32 and its proteolytic fragments (summary statement referring to Example 8). It is filed as cell-based. The following applies: action of PMSF. An excerpt: The cleavage of IL-32 and the consequent enhancement of the biological activity were both blocked by the action of PMSF.
For the purpose of the present description the expression “biological activity of IL-32” refers inter alia to at least one of the following biological properties:
(i) induction of MIP-2, (ii) induction of TNF, and (iii) induction of IL-8.

Structures are written as SMILES. Entries after “also recorded” stand apart in the source; their conditions may differ.

For `O=S(=O)(F)Cc1ccccc1` [PMSF, phenyl methyl sulfonyl fluoride], the “cleavage of IL-32 by urinary and commercial PR-3” value in assay [1] is reported as “completely abolished; also recorded: completely blocked”. In addition, the “enhancement of the biological activity of IL-32 following cleavage by PR-3” value in assay [2] is “blocked”.

The record behind these values is patent US9045559B2, “Method for screening inhibitors of interleukin-32 (IL-32)” (Yeda Research and Development Co. Ltd, priority 2005, dated 2015).
